Results taken from ChEMBL document CHEMBL4665882, “Allosteric kidney-type glutaminase (GLS) inhibitors with a mercaptoethyl linker” (Bioorg Med Chem, 2020).
pIC50: −log10 of the molar value.

Legend:
[1] = Inhibition of human recombinant glutaminase assessed as reduction in glutamate production in presence of NADPH-dependent glutamate dehydrogenase preincubated 60 mins by coupled biochemical assay
[2] = Inhibition of glutaminase (unknown origin) preincubated for 60 mins; set-up: species or system Homo sapiens
[3] = biological target: T1, Glutaminase kidney isoform, mitochondrial (Homo sapiens, UniProt O94925); test: Allosteric inhibition of human kidney glutaminase using [3H]-Glutamine as substrate in presence of inhibitor incubated for 45 mins by Perkin Elmer based assay
T1 sequence (O94925 whole entry): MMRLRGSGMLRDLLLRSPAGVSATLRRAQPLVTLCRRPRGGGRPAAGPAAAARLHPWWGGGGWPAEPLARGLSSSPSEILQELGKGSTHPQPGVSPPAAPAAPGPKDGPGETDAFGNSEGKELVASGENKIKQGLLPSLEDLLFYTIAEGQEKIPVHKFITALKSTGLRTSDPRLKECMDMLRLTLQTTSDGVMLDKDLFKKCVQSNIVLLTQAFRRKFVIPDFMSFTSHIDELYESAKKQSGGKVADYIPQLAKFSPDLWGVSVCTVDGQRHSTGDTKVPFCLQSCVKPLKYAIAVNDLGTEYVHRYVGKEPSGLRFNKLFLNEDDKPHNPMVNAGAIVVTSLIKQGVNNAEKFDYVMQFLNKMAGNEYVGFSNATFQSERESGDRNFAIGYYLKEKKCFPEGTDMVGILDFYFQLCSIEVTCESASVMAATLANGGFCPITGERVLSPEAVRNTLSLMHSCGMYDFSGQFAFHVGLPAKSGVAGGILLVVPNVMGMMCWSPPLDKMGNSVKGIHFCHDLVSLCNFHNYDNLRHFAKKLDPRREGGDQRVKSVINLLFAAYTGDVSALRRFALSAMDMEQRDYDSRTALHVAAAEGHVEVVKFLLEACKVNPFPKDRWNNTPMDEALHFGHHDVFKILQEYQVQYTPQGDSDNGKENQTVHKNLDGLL

[4] = Aqueous solubility of compound in PBS 7.4 at 5 mg/ml incubated for 24 hrs by LC-MS-based shake-flask method; format: physicochemical; details: buffer, pH 7.4, 24 h
[5] = Metabolic stability in mouse liver microsomes assessed as compound remaining after 60 mins incubation in presence of NADPH by LC-MS/MS analysis; format: ADME, Microsome; details: 1 h

Row | SMILES | pIC50 [3] | other results
1 | O=C(Cc1cccc(OC(F)(F)F)c1)Nc1ccc(CCCCc2nnc(NC(=O)Cc3ccccn3)s2)nn1 | – | pIC50 [1]: > 7.30
2 | O=C(Cc1ccccc1)Nc1nnc(CSCc2nnc(NC(=O)Cc3ccccc3)s2)s1 | < 4.00 | pIC50 [2]: < 4.70
3 | O=C(Cc1ccccc1)Nc1nnc([C@H]2CCC[C@H](c3nnc(NC(=O)Cc4ccccc4)s3)C2)s1 | – | pIC50 [2]: > 7.00
4 | O=C(Cc1ccccc1)Nc1ccc(CCSc2nnc(NC(=O)Cc3ccccc3)s2)nn1 | 7.52 | solubility [4]: Insoluble
5 | Nc1nnc(CCSc2nnc(NC(=O)Cc3ccccc3)s2)s1 | 5.80 | –
6 | Nc1nnc(SCCc2nnc(NC(=O)Cc3ccccc3)s2)s1 | 5.52 | –
7 | Nc1nnc(CCSc2ccc(NC(=O)Cc3ccccc3)nn2)s1 | 4.85 | –
8 | Nc1nnc(SCCc2ccc(NC(=O)Cc3ccccc3)nn2)s1 | 5.17 | –
9 | O=C(Cc1ccccn1)Nc1nnc(CCSc2nnc(NC(=O)Cc3ccccc3)s2)s1 | 6.96 | –
10 | O=C(Cc1cccc(OC(F)(F)F)c1)Nc1nnc(CCSc2nnc(NC(=O)Cc3ccccc3)s2)s1 | 6.85 | –
11 | O=C(Cc1ccccc1)Nc1nnc(CCSc2nnc(NC(=O)Cc3ccccn3)s2)s1 | 7.00 | –
12 | CN(C)c1ccc(CC(=O)Nc2nnc(CCSc3nnc(NC(=O)Cc4ccccc4)s3)s2)cc1 | 6.70 | –
13 | O=C(Cc1ccccc1)Nc1nnc(CCSc2nnc(NC(=O)Cc3ccccc3)s2)s1 | 7.30 | Stabilty [5]: 87%
14 | O=C(Cc1ccccc1)Nc1nnc([C@H]2CCC[C@H](c3nnc(NC(=O)Cc4ccccc4)s3)C2)s1 (racemic) | 6.55 | –
